What follows are compounds tested on NCI-H295R (assay: IC50 (antiproliferative, ATP content)). Settings: 48 h.
How it was run: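 Compounds were pin-transferred at 8 final concentrations between 0.6 nM and 46 µM onto adrenocortical carcinoma cells (1500 per well, 1536-well plates) that had been cultured overnight in serum-free DMEM with ITS. Plates then stood 48 h at 37 °C, 5% CO2, and ATP was detected by CellTiter-Glo luminescence. IC50 was derived from logistic fits of normalised signal, and compounds giving no concentration response were noted as above the top dose.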

Question: How did the IC50 turn out when `O=[C@@]([O-])[C@@H](CC3=CC=CC=C3)CC(N1C[C@@]2([H])[C@@](CCCC2)([H])C1)=O.O=[C@@]([O-])[C@@H](CC6=CC=CC=C6)CC(N4C[C@@]5([H])[C@@](CCCC5)([H])C4)=O.O.O.[Ca+2]` was run?
Answer: > 46 µM

Question: `CC(=O)c1ccc2c(c1)N(CCCN1CCC(CCO)CC1)c1ccccc1S2` was tested. Which IC50 did it give?
Answer: > 46 µM

Question: `O=NN(CCCl)C(=O)NCCCl` was tested. Which IC50 did it give?
Answer: > 46 µM

Question: `COc1ccc2cc([C@H](C)C(=O)[O-])ccc2c1.[Na+]` was tested. Which IC50 did it give?
Answer: > 46 µM

Question: How did the IC50 turn out when `Cc1c(C)n(CCN(C)C)c2ccc(C(=O)OCCN(C)C)cc12` was run?
Answer: > 46 µM

Question: For `CC(C)(C)C(=O)OCOP(=O)(COCCn1cnc2c(N)ncnc21)OCOC(=O)C(C)(C)C`, which IC50 is on record?
Answer: > 46 µM

Question: Which IC50 does the source give for `O[C@]([C@@H](CC3)CC[C@@]3(C#N)C(C=C1OC2CCCC2)=CC=C1OC)=O` here?
Answer: > 46 µM

Question: How did the IC50 turn out when `O=c1[nH]c(=O)n(C2CCCO2)cc1F` (stereo not drawn) was run?
Answer: > 46 µM

Question: With `COc1c2occc2cc2ccc(=O)oc12` as the compound, how does the IC50 read?
Answer: > 46 µM

Question: With `O=C(O)/C=C\C(=O)O.c1ccc2nc(N3CCNCC3)ccc2c1` as the compound, how does the IC50 read?
Answer: > 46 µM

Question: For `CCOc1ccc(NC(=S)Nc2ccc(OCC)cc2)cc1`, which IC50 is on record?
Answer: > 46 µM

Question: How did the IC50 turn out when `Cc1nc(-c2ccc(Cl)cc2)oc1COC(C)(C)C(=O)O` was run?
Answer: > 46 µM

Question: For `Cc1ncc2n1-c1ccc(Cl)cc1C(c1ccccc1F)=NC2.Cl`, which IC50 is on record?
Answer: > 46 µM

Question: How did the IC50 turn out when `CCN(CC)CCNC(=O)c1cc(Br)c(N)cc1OC` was run?
Answer: > 46 µM

Question: `CCCc1ncc(C[n+]2ccccc2C)c(N)n1.Cl.[Cl-]` was tested. Which IC50 did it give?
Answer: > 46 µM

Question: `CNc1c2c(nn1C)CCCC2` was tested. Which IC50 did it give?
Answer: > 46 µM

Question: `COc1nccnc1NS(=O)(=O)c1ccc(N)cc1` was tested. Which IC50 did it give?
Answer: > 46 µM

Question: How did the IC50 turn out when `Cl.NNc1ccccc1` was run?
Answer: > 46 µM

Question: For `CN(C)C(=O)Oc1cc(OC(=O)N(C)C)cc(C(O)CNC(C)(C)C)c1.Cl` (stereo not drawn), which IC50 is on record?
Answer: > 46 µM

Question: With `CC(=O)Oc1ccc2c3c1O[C@H]1[C@@H](OC(C)=O)C=C[C@H]4[C@@H](C2)N(C)CC[C@@]341` as the compound, how does the IC50 read?
Answer: > 46 µM

Question: `CCCCCCCCCCCCCCCC(=O)OC(C)C` was tested. Which IC50 did it give?
Answer: > 46 µM

Question: Which IC50 does the source give for `O=C(O)Cc1csc(-c2ccc(Cl)cc2)n1` here?
Answer: > 46 µM

Question: For `CNC(=O)Oc1ccc2c(c1)[C@]1(C)CCN(C)[C@@H]1N2C`, which IC50 is on record?
Answer: > 46 µM

Question: For `CCC(Cc1c(I)cc(I)c(O)c1I)C(=O)O` (stereo not drawn), which IC50 is on record?
Answer: > 46 µM

Question: With `CC=Cc1ccc(O)c(OC)c1` as the compound, how does the IC50 read?
Answer: > 46 µM

Question: For `O=C(CCCN1CC=C(n2c(=O)[nH]c3ccccc32)CC1)c1ccc(F)cc1`, which IC50 is on record?
Answer: > 46 µM

Question: For `CC(=O)Nc1ccc(S(=O)(=O)Nc2ccc([N+](=O)[O-])cc2)cc1`, which IC50 is on record?
Answer: > 46 µM

Question: Which IC50 does the source give for `CC(=O)N(O)CCCCCNC(=O)CCC(=O)N(O)CCCCCNC(=O)CCC(=O)N(O)CCCCCN.CS(=O)(=O)O` here?
Answer: > 46 µM

Question: `CCOc1ccc2ccccc2c1C(=O)N[C@@H]1C(=O)N2[C@@H]1SC(C)(C)[C@@H]2C(=O)[O-].O.[Na+]` was tested. Which IC50 did it give?
Answer: > 46 µM

Question: Which IC50 does the source give for `NC[C@H](O)c1ccc(O)c(O)c1.O=C(O)C(O)C(O)C(=O)O.O=C(O)C(O)C(O)C(=O)O` here?
Answer: > 46 µM

Question: How did the IC50 turn out when `O=[C@](O)[C@@H]1[C@@H](CC(O)=O)[C@@H]([C@](C)=C)CN1` was run?
Answer: > 46 µM

Question: For `Cc1ccc(S(=O)(=O)NC(=O)NC2CCCCCCC2)cc1`, which IC50 is on record?
Answer: > 46 µM

Question: `CN(c1nccc(=O)[nH]1)C1CCN(c2nc3ccccc3n2Cc2ccc(F)cc2)CC1` was tested. Which IC50 did it give?
Answer: > 46 µM

Question: With `CN1Cc2c(N)cccc2C(c2ccccc2)C1.O=C(O)/C=C\C(=O)O` (stereo not drawn) as the compound, how does the IC50 read?
Answer: > 46 µM

Question: Which IC50 does the source give for `CCC1(c2ccc(N)cc2)CCC(=O)NC1=O` (stereo not drawn) here?
Answer: > 46 µM

Question: `CCCC(=O)OC(C(Cl)(Cl)Cl)P(=O)(OC)OC` (stereo not drawn) was tested. Which IC50 did it give?
Answer: > 46 µM

Question: With `CCOC(=O)c1ccccc1O` as the compound, how does the IC50 read?
Answer: > 46 µM

Question: For `C=C[C@H]1CN2CC[C@H]1C[C@@H]2[C@@H](O)c1ccnc2ccc(OC)cc12`, which IC50 is on record?
Answer: > 46 µM

Question: How did the IC50 turn out when `F[C@@]([C@](C[C@@H]5F)([H])[C@@](C4)([H])[C@@]2(C)[C@@]1([C@](COC(C)=O)=O)[C@]4([H])OC(C)(C)O1)([C@@H](O)C2)[C@](C=C3)(C)C5=CC3=O` was run?
Answer: > 46 µM

Question: Which IC50 does the source give for `CCCCO` here?
Answer: > 46 µM

Question: How did the IC50 turn out when `Nc1nc(N)nc(-c2cc(Cl)ccc2Cl)n1.O=C(O)/C=C\C(=O)O` was run?
Answer: > 46 µM

Question: How did the IC50 turn out when `C=CCN1CCc2nc(N)sc2CC1` was run?
Answer: > 46 µM

Question: For `Oc1ccc(Cl)cc1`, which IC50 is on record?
Answer: > 46 µM
